“Also recorded” adds a separate entry of the source.
Legend:
[1] = system: metallothionein gene family members and ZnT1; assay: Northern blot analysis, A549 cultures; type: cell-based, human; details: for Metallothionein transcript levels: A549, 24 hours, 50 μM MGd, Zn(OAc)2 100 μM, CdCl2 50 μM, FIG. 2B
Description: Methods: Northern Blot Analysis—Plateau phase cultures of A549 cells were prepared as described above, except that T-25 flasks were used, and the number of cells initially plated scaled accordingly. Cultures were treated with 50 μM MGd, 5 μM Gd(OAc)3 or 5% mannitol for 4 hours, whereupon cultures were washed twice with PBS and RNA harvested as above. Alternatively, 7-day plateau phase A549 or PC3 cultures were treated with 50 μM MGd, 50-100 μM Zn(OAc)2, 50 μM CdCl2 or 5% mannitol for 24 hours (A549) or 4 hours (PC3) prior to washing and RNA analysis. Exponential phase Ramos cultures were treated for 6 hours. Northern blots were conducted and analyzed. Radio labeled metallothionein probe, designed to bind to a 113-bp region of 3′-UTR sequences from multiple metallothionein gene family members, was generated using 5′-[…]-3′ (forward) and 5′-[…]-3′ (reverse) PCR primers and the NEBlot kit (New England Biolabs, Inc.). Radio labeled ZnT1 probe was generated in a similar fashion using 5′-[…]-3′ (forward) and 5′-[…]-3′ (reverse) primers.

[2] = system: A549 cells; assay: Intracellular free zinc (FluoZin-3 fluorescence), A549; type: cell-based, human; details: for Increase in cellular FluoZin-3 fluorescence: A549, MGd in the absence of actinomycin D
Description: (§1) Methods: The concentration of intracellular free zinc was assessed using the ion-specific fluorescent probe, FluoZin-3-AM™ (FluoZin-3, Molecular Probes, Inc.). […] Following treatment, cells were isolated by centrifugation. Cell pellets were washed and re-suspended in a solution of 0.5% BSA in PBS.

[3] = system: Ramos cells; assay: Intracellular free zinc (FluoZin-3 fluorescence), Ramos; type: cell-based; details: 10 μM MGd or 50 μM zinc alone
Description: as §1, with “Methods: Intracellular Free Zinc.” for “Methods:”

[4] = system: Ramos B-cell lymphoma cells; assay: Proliferation, Ramos; type: cell-based; details: 50 μM zinc
Description: (§2) Methods: The proliferation of exponential phase cultures was assessed by colorimetric assay. In brief, 2×10^5 suspension cells per well were seeded on 96-well V-bottom microtiter plates. Stock solutions of control vehicle, MGd or Zn(OAc)2 in medium were added and plates were incubated at 37° C. under a 5% CO2/95% air atmosphere. After 24 hours, medium was replaced with fresh medium. After 2 additional days, medium was exchanged with fresh medium (150 μL/well) supplemented with 3-(4,5-dimethylthiazol-2-yl)-2,5-diphenyltetrazolium bromide (MTT, 0.5 mg/mL, Sigma Biochemical, St. Louis, Mo.). Plates were incubated at 37° C. and viable cells measured.
as §2, with “Cellular Proliferation—The” for “Methods: The”

[5] = system: PC3 cells; assay: Colony forming assay, PC3; type: cell-based; details: 10 μM MGd, 75 μM zinc
[6] = system: Thioredoxin reductase; assay: Lipoate reduction (thioredoxin reductase activity) in intact A549 cells; type: cell-based, human; details: for Inhibition of lipoate reduction: plateau phase A549, two-hour treatment
Description: Methods: Lipoate Reduction. Thioredoxin reductase activity was assessed by measuring the rate of lipoate reduction. In brief, A549 or PC3 cells (10,000 cells/well) were plated on 96-well plates and allowed to adhere overnight and grow two additional days until confluent. Cells were treated with MGd, zinc, or 5% mannitol for 2-4 hours, as indicated. Medium was removed, cells were washed with Hanks Balanced Salt Solution (HBSS), and a solution of 5 mM lipoic acid and 1 mM 5,5′-dithiobis(2-nitrobenzoic acid) in HBSS (100 μL/well) was added. Plates were incubated at ambient temperature in the dark. At chosen time intervals, plate absorbance was measured at 405-650 nm. Plate absorbances were normalized to wells containing neither exogenous zinc nor texaphyrin complex to allow plate-to-plate comparison. In some experiments, L-buthionine-[S,R]-sulfoximine (BSO, 100 μM) was added 24 hours prior to MGd or zinc treatment, to inhibit any contribution to lipoate reduction made by glutathione-dependent pathways (28). Actinomycin D (2.5 μg/mL) or cycloheximide (10 μg/mL), where present, was added 1 hour prior to texaphyrin or zinc treatment. Viability was checked on parallel plates using the tetrazolium dye 3-(4,5-dimethylthiazol-2-yl)-5-(3-carboxymethoxyphenyl)-2-(4-sulfophenyl)-2H-tetrazolium (MTS) following the manufacturers protocol (Promega Corp.).

[7] = system: Ramos cells; assay: Reactive oxygen species (DCFA to DCF), Ramos; type: cell-based; details: single agents
Description: Methods: Reactive oxygen species were measured in live cells as intracellular peroxides by monitoring the oxidation of 2′,7′-dichlorofluorescin-diacetate (DCFA) to 2′,7′-dichlorofluorescein (DCF) (Molecular Probes). Cells (1×10^6 per mL) were incubated in a solution of 1 μg per mL DCFA in 0.5% BSA in HBSS for 15 minutes at 37° C. Two mL additional 0.5% BSA in HBSS was added, cells were isolated by centrifugation, and the pellet re-suspended in a solution of 50 μg/mL 7-aminoactinomycin D (7-AAD) in 0.5% BSA in HBSS. Cell suspensions were incubated at ambient temperature for 2 to 3 minutes, and stored on ice until analysis. The fluorescent intensity in live (i.e., 7-AAD impermeable) cells was analyzed by flow cytometry.

[8] = system: Ramos cells; assay: Mitochondrial membrane potential (JC-1), Ramos; type: cell-based; details: single agent alone
Description: Mitchondrial membrane potential. Loss of the mitochondrial membrane potential (ΔΨm) of cells was measured by the use of JC-1 (Molecular Probes, Inc., Eugene, Oreg.). Cells undergoing early apoptosis lose fluorescence in the 585 nm channel and gain it in the 530 nm channel. Briefly, cells cultured as described above were washed twice with complete medium, re-suspended in 0.5 mL JC-1 solution (10 μg/mL in complete medium), and incubated at 37° C. for 15 minutes. Cells were isolated by centrifugation, washed once and then re-suspended in 0.5 mL solution of 0.5% BSA in PBS and assayed immediately on the flow cytometer.

[9] = system: A549 cells; assay: Cell viability by propidium iodide exclusion, A549
Description: Methods: Cellular Viability. Cell viability was determined by using propidium iodide (PI) flow cytometric analysis. Cells from plateau phase cultures grown in T-25 flasks were harvested as described above, except that cells present in the growth medium and wash solution were isolated by centrifugation and included in the analysis. Cells were resuspended in 1 mL PBS, an aliquot of 3×10^5 cells transferred to a 4 mL tube, and the cells isolated by centrifugation. Cell pellets were resuspended in PBS supplemented with 2 μg/mL propidium iodide (Sigma), incubated for 5 minutes at ambient temperature, and subjected to flow cytometric analysis. Flow cytometry was performed on a FACSCalibur instrument and data were analyzed using the CellQuest Pro software package (BD Biosciences).

SMILES	Metallothionein transcript levels [1]	Metallothionein transcript levels ([1]; listed as zinc)	Cell-associated fluorescence of FluoZin-3 at 530 nm ([2]; A549, 4 hours, Zn(OAc)2 50-100 μM)	FluoZin-3 fluorescence ([3]; by 12 hours)	FluoZin-3 fluorescence ([3]; within 2 hours)	Cellular proliferation [4]	Surviving fraction [5]	Inhibition of lipoate reduction [6]	DCF signal [7]	JC-1 fluorescence [8]	Cellular viability (propidium iodide exclusion) ([9]; A549, 24 hours, Zn(OAc)2 100 μM, CdCl2 50 μM, MGd 50 μM)	Induction of metallothionein gene family members and ZnT1 (Northern blot) ([1]; A549 plateau phase, 4 hours, 50 μM MGd or 5 μM Gd(OAc)3)	Increase in cellular FluoZin-3 fluorescence ([2]; serum medium) [fold]	Increase in cellular FluoZin-3 fluorescence ([2]; serum-free medium) [fold]	Effect of MGd on inhibition of lipoate reduction by zinc ([6]; A549)	Apparent inhibitory concentration of MGd ([6]; A549, dose-dependent effect of MGd on inhibition with zinc)	Concentration above which the effect of MGd on lipoate reduction saturated ([6]; A549, potentiation of zinc inhibition)	Effect of MGd on the cytotoxicity of CdCl2 ([9]; A549 cells, FIG. 2A)
CC(=O)[O-].CC(=O)[O-].[Zn+2] [Zn(OAc)2, Zinc acetate]	significant increase	raised	significantly increased	returned to baseline levels	small increases	without effect	without effect	≤ 30%	increased DCF signal	No significant change	no effect on cellular viability	–	–	–	–	–	–	–
CC(=O)[O-].CC(=O)[O-].CCc1c(CC)c2cc3nc(cnc4cc(OCCOCCOCCOC)c(OCCOCCOCCOC)cc4ncc4nc(cc1[n-]2)C(CCCO)=C4C)C(C)=C3CCCO.O.[Gd+3] [MGd, Motexafin gadolinium]	raised; also recorded: significant increase	–	–	returned to baseline levels	small increases	without effect	without effect	approximately 10%	increased DCF signal	No significant change	–	confirmed the induction; also recorded: induced	1.2	1.1	potentiated	approximately 2.5 μM	approximately 5 μM	attenuated
